Laboratory results reported in PubChem BioAssay AID1963430 (Molecular Pharmacology Branch, DTP, NCI, 2024).

Tested on: 521955-158-R2-J5-PDC complex spheroid growth, % test/control
Assay: Anticancer human tumor 521955-158-R2-J5-PDC patient-derived pancreatic carcinoma cell line growth inhibition [Asc]
Conditions: for IC50: curve of first compound; for viability, T/C: stronger effect = lower value
Procedure, shortened: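 Complex solid-tumor spheroids incorporating human endothelial and mesenchymal stem cells received single agents or combinations over half-log dilution ranges anchored to clinical Cmax.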

[1] = second compound 0.1 µM, first compound 0.00316 µM
[2] = second compound 0.1 µM, first compound 0.01 µM
[3] = second compound 0.1 µM, first compound 0.0316 µM
[4] = second compound 0.1 µM, first compound 0.1 µM
[5] = second compound 0.1 µM, first compound 0.316 µM
[6] = second compound 0.1 µM, first compound 1 µM
[7] = second compound 0.316 µM, first compound 0.00316 µM
[8] = second compound 0.316 µM, first compound 0.01 µM
[9] = second compound 0.316 µM, first compound 0.0316 µM
[10] = second compound 0.316 µM, first compound 0.1 µM
[11] = second compound 0.316 µM, first compound 0.316 µM
[12] = second compound 0.316 µM, first compound 1 µM
[13] = second compound 1 µM, first compound 0.00316 µM
[14] = second compound 1 µM, first compound 0.01 µM
[15] = second compound 1 µM, first compound 0.0316 µM
[16] = second compound 1 µM, first compound 0.1 µM
[17] = second compound 1 µM, first compound 0.316 µM
[18] = second compound 1 µM, first compound 1 µM
[19] = second compound 3.16 µM, first compound 0.00316 µM
[20] = second compound 3.16 µM, first compound 0.01 µM
[21] = second compound 3.16 µM, first compound 0.0316 µM
[22] = second compound 3.16 µM, first compound 0.1 µM
[23] = second compound 3.16 µM, first compound 0.316 µM
[24] = second compound 3.16 µM, first compound 1 µM
[25] = second compound 10 µM, first compound 0.00316 µM
[26] = second compound 10 µM, first compound 0.01 µM
[27] = second compound 10 µM, first compound 0.0316 µM
[28] = second compound 10 µM, first compound 0.1 µM
[29] = second compound 10 µM, first compound 0.316 µM
[30] = second compound 10 µM, first compound 1 µM
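Further: spheroids exposed to agents for 7 days before readout.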
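Wherever viability, T/C is given: 100% = DMSO vehicle control viability.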

IC50 (second compound 0.1 µM) [nM]	IC50 (second compound 0.316 µM) [nM]	IC50 (second compound 1 µM) [nM]	IC50 (second compound 3.16 µM) [nM]	IC50 (second compound 10 µM) [nM]	Compound	viability, T/C [1] [%]	viability, T/C [2] [%]	viability, T/C [3] [%]	viability, T/C [4] [%]	viability, T/C [5] [%]	viability, T/C [6] [%]	viability, T/C [7] [%]	viability, T/C [9] [%]	viability, T/C [10] [%]	viability, T/C [15] [%]	viability, T/C [16] [%]	viability, T/C [21] [%]	viability, T/C [22] [%]	viability, T/C [27] [%]	viability, T/C [28] [%]	further results
3.16	3.16	> 1000	> 1000	> 1000	CCN1CCN(Cc2ccc(Nc3ncc(F)c(-c4cc(F)c5nc(C)n(C(C)C)c5c4)n3)nc2)CC1 + Cc1c(S(C)(=O)=O)c(-c2cc(F)cc(N3CCN(c4ccc(NS(=O)(=O)c5ccc(NC(CCN6CCC(C(=O)OCCCP(=O)(O)O)CC6)CSc6ccccc6)c(S(=O)(=O)C(F)(F)F)c5)cc4)CC3)c2)c(-c2ccc(Cl)cc2)n1C(C)C	86.2	34.5	42.2	48.3	73	87.6	69	41.4	46.5	59.6	50.7	43.8	61.4	120	179	viability, T/C [8]: 61%; viability, T/C [11]: 77.7%; viability, T/C [12]: 92.8%; viability, T/C [13]: 77.5%; viability, T/C [14]: 56.5%; viability, T/C [17]: 65.6%; viability, T/C [18]: 114%; viability, T/C [19]: 58%; viability, T/C [20]: 50.1%; viability, T/C [23]: 74.3%; viability, T/C [24]: 88.4%; viability, T/C [25]: 171%; viability, T/C [26]: 111%; viability, T/C [29]: 162%; viability, T/C [30]: 142%
> 100	> 100	53.1	29	> 100	Cn1ncnc1[C@H]1c2n[nH]c(=O)c3cc(F)cc(c23)N[C@@H]1c1ccc(F)cc1 + Cc1c(S(C)(=O)=O)c(-c2cc(F)cc(N3CCN(c4ccc(NS(=O)(=O)c5ccc(NC(CCN6CCC(C(=O)OCCCP(=O)(O)O)CC6)CSc6ccccc6)c(S(=O)(=O)C(F)(F)F)c5)cc4)CC3)c2)c(-c2ccc(Cl)cc2)n1C(C)C	61.1	67.2	53.3	53.1			74.6	65.1	68.8	54.8	56.5	39.8	56.8	236	164	viability, T/C (second compound 0.1 µM, first compound 0.000316 µM): 93.4%; viability, T/C (second compound 0.1 µM, first compound 0.001 µM): 80.7%; viability, T/C (second compound 0.316 µM, first compound 0.000316 µM): 99.6%; viability, T/C (second compound 0.316 µM, first compound 0.001 µM): 84.3%; viability, T/C [8]: 81.4%; viability, T/C (second compound 1 µM, first compound 0.000316 µM): 151%; viability, T/C (second compound 1 µM, first compound 0.001 µM): 85%; viability, T/C [13]: 102%; viability, T/C [14]: 55.1%; viability, T/C (second compound 3.16 µM, first compound 0.000316 µM): 78.3%; viability, T/C (second compound 3.16 µM, first compound 0.001 µM): 105%; viability, T/C [19]: 82.3%; viability, T/C [20]: 70.6%; viability, T/C (second compound 10 µM, first compound 0.000316 µM): 241%; viability, T/C (second compound 10 µM, first compound 0.001 µM): 216%; viability, T/C [25]: 201%; viability, T/C [26]: 173%
5690	> 10000	835	> 10000	> 10000	O=C(c1cc(Cc2n[nH]c(=O)c3ccccc23)ccc1F)N1CCN(C(=O)C2CC2)CC1 + Cc1c(S(C)(=O)=O)c(-c2cc(F)cc(N3CCN(c4ccc(NS(=O)(=O)c5ccc(NC(CCN6CCC(C(=O)OCCCP(=O)(O)O)CC6)CSc6ccccc6)c(S(=O)(=O)C(F)(F)F)c5)cc4)CC3)c2)c(-c2ccc(Cl)cc2)n1C(C)C			74.6	73.8	66.1	68.3		51.4	55.3	68.5	88.3	71.5	50.3	103	172	viability, T/C (second compound 0.1 µM, first compound 3.16 µM): 59%; viability, T/C (second compound 0.1 µM, first compound 10 µM): 41.4%; viability, T/C [11]: 61.4%; viability, T/C [12]: 68.4%; viability, T/C (second compound 0.316 µM, first compound 3.16 µM): 70.1%; viability, T/C (second compound 0.316 µM, first compound 10 µM): 63.2%; viability, T/C [17]: 63.4%; viability, T/C [18]: 45.6%; viability, T/C (second compound 1 µM, first compound 3.16 µM): 52.6%; viability, T/C (second compound 1 µM, first compound 10 µM): 44.4%; viability, T/C [23]: 95.8%; viability, T/C [24]: 70.2%; viability, T/C (second compound 3.16 µM, first compound 3.16 µM): 72.9%; viability, T/C (second compound 3.16 µM, first compound 10 µM): 49.8%; viability, T/C [29]: 117%; viability, T/C [30]: 139%; viability, T/C (second compound 10 µM, first compound 3.16 µM): 102%; viability, T/C (second compound 10 µM, first compound 10 µM): 99.9%
103	21.3	32.2	39.9	78.8	O=C(c1ccc(F)c(F)c1Nc1ccc(I)cc1F)N1CC(O)([C@@H]2CCCCN2)C1 + Cc1c(S(C)(=O)=O)c(-c2cc(F)cc(N3CCN(c4ccc(NS(=O)(=O)c5ccc(NC(CCN6CCC(C(=O)OCCCP(=O)(O)O)CC6)CSc6ccccc6)c(S(=O)(=O)C(F)(F)F)c5)cc4)CC3)c2)c(-c2ccc(Cl)cc2)n1C(C)C	64	60.4	69.8	45.5	34.5	19.9	66.9	56.5	37.8	49.1	37.6	50.8	31.6	135	36.1	viability, T/C [8]: 44.6%; viability, T/C [11]: 23.2%; viability, T/C [12]: 13%; viability, T/C [13]: 82%; viability, T/C [14]: 64.6%; viability, T/C [17]: 18.1%; viability, T/C [18]: 5.29%; viability, T/C [19]: 61.2%; viability, T/C [20]: 75.1%; viability, T/C [23]: 9.65%; viability, T/C [24]: 5.32%; viability, T/C [25]: 169%; viability, T/C [26]: 242%; viability, T/C [29]: 10.6%; viability, T/C [30]: 2.76%
